We go through two compounds from patent US11351134B2, “Small molecule agents, compositions, and formulations, for internal use, displaying inhibitory activity against gram-positive and/or gram-negative organisms” (NATUREZA, INC., priority 2017, dated 2022).

Read-outs that look alike come from different tables or passages of the source.

One data set can be described thus: Miscibility with water. The format is physicochemical. The following applies: mixed with water under agitated conditions. Here is the method:
(§1) Initially, to determine basic characteristics, each active component was separately mixed, generally under agitated conditions, with water, and each was miscible with water. Each, after being mixed with water, was tested in a broth microdilution assay, against a variety of bacteria using amounts of the each of the lauric acid derivatives, ranging from about 0.0009 wt. % to about 8 wt. %. The bacteria included Escherichia coli, and Staphylococcus aureus (including MRSA strains). The minimum inhibitory concentration (MIC) needed to prevent growth of the target bacteria was evaluated based on a method published by Clinical Laboratory Standards Institute (CLSI), broth microdilution method M-07 (M07). […] Each of the samples containing one of the lauric acid derivatives was compared with a positive control, decanoic acid.

Data set [1] has as its system representative bacteria tested in vitro, whether Gram-positive or Gram-negative. Kind of data set: In vitro growth inhibition of active component suspended in chloroform, mixed with water, chloroform evaporated. In kind it is cell-based. The following applies: pH neutral or acidic, no lecithin or chitosan. Here is the method: In another preparation, each of the lauric acid derivatives of TABLE 4 was independently suspended in an organic solvent, chloroform, and then mixed with water, generally under agitated conditions. This was followed by chloroform evaporation, generally under vacuum, using a freeze dryer. The same preparations were evaluated against the positive control, decanoic acid. Here, for all samples, the amount of water to the amount of chloroform was at least 2:1, and was as high as 10:1. The pH was neutral or was acidic. For each of the lauric acid derivatives as so prepared independently, there was no evidence of any growth inhibitory activity (growth inhibition) against representative bacteria tested in vitro, whether Gram-positive or Gram-negative.

Another data set concerns S. epidermidis. Kind of data set: Broth microdilution MIC of lecithin/chitosan particle compositions. In kind it is cell-based. The following applies: Staphylococcus epidermidis, lecithin/chitosan particle composition, prep. mixture pH 5 or pH 7, maximum concentration tested 10 mg/ml. Here is the method: as §1
(§2) For TABLES 1 to 3, compositions were generally prepared as described above, and as further outlined in this paragraph. For these examples, the active component, as a lauric acid derivative or lauric acid, was suspended in an organic solvent, chloroform, and then mixed with water, under robust agitation. The amount of water to the amount of chloroform was at least about 2:1, and could be as high as 10:1. Chloroform was then evaporated (e.g., under vacuum using a freeze dryer). After removal of the chloroform, a 2.2% lecithin solution in an acetate buffer (e.g., 98 mM acetic acid and 2 mM sodium acetate) was prepared and added, so the final amount of the active component was about 1 part active component mixture and about 9 parts of the 2.2% lecithin solution. Of course, it is noted that other ranges to achieve final amount of the active component as described above (e.g., active component mixture and lecithin solution) may also be utilized. Cholesterol could also be optionally added. The mixture of lecithin and the active component was mixed and sonicated, and then a solution of about 1.5% chitosan was added. Thereafter, the entirety of the mixture containing the lecithin and the active component was further blended, in which a final ratio was about 1 part active component to about 9 parts of the 2.2% lecithin solution to about 10 parts of the 1.5% chitosan solution. The pH was then varied, to a pH of 5, or a pH of 7, or a pH of 9. In some mixtures having a pH of 7, a chemical agent imparting a positive charge to the chitosan was included in a form of glycol chitosan. In these tests, the chemical agent used was glycol. In these examples, the amount of chemical agent, glycol was about one molecule glycol moiety to one molecule chitosan sacharide unit; higher amounts of glycol moieties are also acceptable, while lower amounts of glycol moieties were often found to decrease overall inhibitory activity associated with a composition when formed and tested in vitro. It is noted that negatively charged chitosan containing particles were prepared. […] After mixing, the mixtures could each be filtered through a […] filter. In some tests, the mixtures were sonicated before filtering. Sonication produced small particles. In some studies, particles were freeze dried as a powder (generally, after mixing, sonicating and filtering).
(§3) The positive controls were prepared and evaluated in a similar manner. All prepared samples were tested using a broth microdilution test.
(In broth dilution the organism is exposed to a series of concentrations in liquid medium.)

For a further data set, the system named is E. coli. The description is as above. The following applies: maximum concentration tested 10 mg/ml; for MIC (mg/ml) for E. coli (chitosan prep. mixture was at pH 5 or at pH 7): prep. mixture pH 5 or pH 7; for MIC: Escherichia coli. The format is cell-based. Here is the method:
as §1, §2, §3

A further data set concerns Escherichia coli. Kind of data set: Broth microdilution (CLSI M07) of active component mixed with water only. The following applies: active component mixed with water only (miscible state); about 0.0009 wt. % to about 8 wt. %. The format is cell-based. Here is the method:
as §1

Data set [2] has as its system Staphylococcus aureus (including MRSA strains). Described as above. The format is cell-based. The following applies: active component mixed with water only (miscible state); about 0.0009 wt. % to about 8 wt. %. Here is the method:
as §1

For data set [3], the system named is Gram-positive pathogens and Gram-negative pathogens. Kind of data set: In vitro inhibitory activity of chitosan- or carrier-containing particles. The following applies: synthesis (with chitosan) at pH 7 with positively charged chitosan. The format is cell-based.
Description: as §2, §3
This also occurs when the chitosan- or carrier-containing particle includes an active component that has a log P value that is less than 4 and includes a methyl and/or ethyl side chain (e.g., 12-amino-1-dodecanoic acid methyl ester). […]

Data set [4] concerns representative Gram-positive pathogens and yeast. Kind of data set: Broth microdilution of lecithin/chitosan compositions, sonicated and/or filtered. The format is cell-based. The following applies: composition with lecithin and chitosan. An excerpt: In a further preparation, lauric acid derivative, 12-aminododecanoic acid or 12-amino-1-dodecanoic acid methyl ester, was suspended individually (and independently) in an organic solvent, chloroform, and mixed with water, generally under agitated conditions. Here, for each sample, the amount of water to the amount of chloroform was at least 2:1, and was as high as 10:1. This was followed by chloroform evaporation, generally under vacuum using a freeze dryer. After removal of the chloroform, a lecithin solution was added to each sample. The lecithin was in a solution of acetic acid (e.g., 98 mM acetic acid and 2 mM sodium acetate), in which the amount of lecithin in solution was between about 1% to 5%. With addition of lecithin, each sample mixture contained up to about 4.8% lecithin (or generally about 5% or less), and up to about 7.8% of one of the lauric acid derivatives (or generally about 8% or less). pH of the solution was neutral. It is noted that the lecithin should be in a suitable form (e.g., solution or granules) acceptable for internal utilization (e.g., pharmaceutical grade). The lecithin may also include cholesterol, or other lecithin variants as described above, with similar results. Chitosan was then added to each of the samples, and each sample was then independently sonicated, followed by independent sterilization by high pressure filtration. […]

The mark [5] stands for this setting: read-out: MIC (mg/ml) for S. epidermidis (chitosan prep. mixture was at pH 5 or at pH 7).
[6] abbreviates: lecithin/chitosan particle composition.

Consider `CCCCCCCCCC(=O)O` [decanoic acid, reference compound], for which the Miscibility with water result in “Miscibility with water” is “not miscible in water”. In addition, in data set [1], the “Growth inhibitory activity against representative bacteria” value is on record as “did not demonstrate growth inhibitory activity”. For the same compound, the MIC with S. epidermidis (Table 3, read-out: MIC (mg/ml) S. epidermidis (chitosan prep. mixture at pH 5 or at pH 7)) turned out to be 10 mg/mL; with S. epidermidis (setting [5]), 10 mg/mL. In the data set on E. coli (setting [6]), the “MIC (mg/ml) for E. coli (chitosan prep. mixture was at pH 5 or at pH 7)” value is on record as “— (no inhibitory activity)”.
Regarding `NCCCCCCCCCCCC(=O)O` [12-aminododecanoic acid], the “Inhibitory activity against Gram-negative bacteria (e.g., E. coli)” value with Escherichia coli is recorded as “does not, in the miscible state, demonstrate inhibitory activity”. In addition, the “Inhibitory activity against Gram-positive bacteria (e.g., S. aureus)” value in data set [2] was “does not, in the miscible state, demonstrate inhibitory activity”. Further, the MIC with S. epidermidis (setting [5]) is 10 mg/mL; in the data set on E. coli (lecithin/chitosan particle composition, prep. mixture pH 9, read-out: MIC (mg/ml) for E. coli (chitosan prep. mixture was at pH 9)), 10 mg/mL; with E. coli (lecithin/glycol chitosan particle composition, prep. mixture pH 7, read-out: MIC (mg/ml) for E. coli (chitosan prep. mixture was at pH 7 with glycol chitosan)), 10 mg/mL. The “MIC (mg/ml) for E. coli (chitosan prep. mixture was at pH 5 or at pH 7)” value in the data set on E. coli (setting [6]) is “— (no inhibitory activity)”. For the same compound, in data set [3], the “Inhibitory activity against both Gram-positive pathogens and Gram-negative pathogens” value is reported as “stronger inhibitory activity as well as broad spectrum activity”. In addition, the “Growth inhibitory activity against representative Gram-positive pathogens and yeast” value in data set [4] is on record as “exhibited growth inhibitory activity”.
